Test results reported in the SangsterLogP compilation.

Legend:
[1] = not given; remark: listed apart in the source
[2] = not given; remark: listed apart in the source
[3] = method code SF-AS, from DOI: 10.1016/j.ejps.2010.09.003, PMID: 20854904
[4] = method code SF-AS, from DOI: 10.1007/s001289900104, PMID: 8661852
[5] = method code SF-AS, from DOI: 10.1016/j.bioorg.2006.09.003, PMID: 17078995; details: pH 7.4
[6] = method code SF-AS, from DOI: 10.1128/aac.27.1.84, PMID: 2580479
[7] = method code SF-AS, from DOI: 10.1007/bf01648987
[8] = method code SF-AS, from DOI: 10.1007/bf01964075; details: pH 2.1
[9] = method code SF-HPLC, from PMID: 1293941
[10] = method code SF-AS, from Jha, T.; Debnath, A.; Mazumdar, A.; Sengupta, C.; De, A. (1986). Hansch analysis of antineoplastic agents, 5-N-substituted-2-p-substituted benzenesulfonyl-L-glutamines. Ind. J. Chem., Sect. B, …
[11] = not given; remark: listed apart in the source
[12] = not given; remark: listed apart in the source
[13] = method code SF-AS, from DOI: 10.1016/s0045-6535(98)00368-3; details: for logD: pH 2.0
[14] = method code SF-AS, from DOI: 10.1002/jps.2600630206, PMID: 4204981
[15] = method code SF, from DOI: 10.1016/s0045-6535(97)00338-x
[16] = not given; remark: listed apart in the source
[17] = from Rich, R. (1990). Partition coefficients of quinones and their relation to biochemical reactivity. In Lenaz, G. (Ed.), Highlights in Ubiquinone Research: Proceedings of the International Symposium, …
[18] = not given; remark: listed apart in the source
[19] = method code SF-AS, from DOI: 10.1002/em.2850200210, PMID: 1505530
[20] = method code SF, from DOI: 10.1248/yakushi1947.96.10_1169, PMID: 1033993; details: pH 0.7

Cc1cc(Cc2c(Cl)cccc2Cl)c(Cl)cc1Cl showed a logP of 6.53.
Compound O=C(Oc1ccc2cc(Br)ccc2c1)C1OC(O)C(O)C(O)C1O (stereo not given) has a logP [1] of 1.97.
O=C(O)CCCOc1cccc2ccccc12 showed a logP [2] of 3.5.
Work on CCN(CC)CCC(=O)c1ccccc1 yielded a logD ([3]; pH 10.0) of 1.59.
[N-]=[N+]=Nc1nc(N=[N+]=[N-])nc(Nc2ccccc2)n1 gave a logP [4] of 3.88.
CCCC(=O)OCCc1ccc(O)c(OC)c1 showed a logD [5] of 2.54.
Compound CC(=O)OCC1=C(C(=O)O)N2C(=O)[C@@H](NC(=O)CC#N)[C@H]2SC1 has a logP [6] of -0.45.
With O=C(O)CCCCOc1cccc2ccccc12 the logP [2] was 4.
CC(=O)NC1CC1c1ccccc1 (stereo not given) showed a logP [7] of 1.43.
CNC(=O)C1CCCN1C(C)=O (stereo not given) gave a logD [8] of -1.19.
O=C(O)CCCCCOc1cccc2ccccc12 showed a logP [2] of 4.5.
Compound O=C(CCN1CCCC1)c1ccccc1 has a logD ([3]; pH 10.0) of 1.91.
Compound CCCOC(=O)c1ccc(N)cc1 has a logP [9] of 2.43.
For CCCCCCNC(=O)CCC(NS(=O)(=O)c1ccc(C)cc1)C(=O)O (stereo not given), the logP [10] was 0.92.
In the case of CCN1CCN(C(=O)N[C@@H](C(=O)N[C@@H]2C(=O)N3C(C(=O)O)=C(CSc4nnnn4C)CS[C@H]23)c2ccc(O)cc2)C(=O)C1=O, the logP [6] is reported as -0.74.
For CN(C)Cc1ccccc1, the logP [11] was 1.91.
In the case of CCn1ccc(NS(=O)(=O)c2ccc(N)cc2)nc1=O, the logP [11] is reported as -0.2.
Work on CCN1CCN(C(=O)N[C@@H](C(=O)N[C@@H]2C(=O)N3[C@@H]2SC(C)(C)[C@@H]3C(=O)O)c2ccccc2)C(=O)C1=O yielded a logP [6] of 0.5.
Work on CCCCCCCCOC(=O)c1ccc(N)cc1 yielded a logP [9] of 5.02.
Compound c1cn(C23CC4CC(CC(C4)C2)C3)cn1 has a logP [12] of 2.9.
With CCN(CC)CC the logP [11] was 1.36.
With COC(=O)c1ccccc1S(=O)(=O)NC(=O)Nc1nc(OC)cc(OC)n1 the logD [13] was 1.78.
For CCOC(=O)/C=C/c1ccccc1, the logP [7] was 2.91.
In the case of O=C(O)C1Cc2cc(Cl)ccc2O1 (stereo not given), the logP [14] is reported as 2.11.
For CC(=O)Nc1ccc(F)cc1F, the logP [15] was 1.5.
In the case of COC(=O)CS(=O)c1ccccc1[N+](=O)[O-] (stereo not given), the logP [16] is reported as 0.98.
With c1cnn(C23CC4CC(CC(C4)C2)C3)c1 the logP [12] was 3.05.
In the case of Cc1c(O)ccc(O)c1C, the logP [17] is reported as 1.36.
CC(C)N1CCOC(c2ccccc2)C1 (stereo not given) gave a logP [18] of 2.3.
O=C(O)COc1ccc(F)cc1 gave a logD ([15]; pH 2.0) of 1.57.
Compound O=C(Oc1ccccc1)C1OC(O)C(O)C(O)C1O (stereo not given) has a logP [1] of -0.69.
With Cc1ccc(OC(=O)C2OC(O)C(O)C(O)C2O)cc1 (stereo not given) the logP [1] was 0.37.
CCCNC(=O)CCC(NS(=O)(=O)c1ccccc1)C(=O)O (stereo not given) gave a logP [10] of -0.08.
COC(=O)CSc1ccc([N+](=O)[O-])cc1 showed a logP [16] of 2.29.
CCCCCOC(=O)c1ccc(N)cc1 gave a logP [9] of 3.48.
Work on Clc1nc(Cl)nc(Nc2ccccc2)n1 yielded a logP [4] of 3.03.
c1ccc2nn(C34CC5CC(CC(C5)C3)C4)nc2c1 gave a logP [12] of 4.3.
In the case of Cc1cc(O)cc(C)c1O, the logP [17] is reported as 1.
Compound O=[N+]([O-])c1ccc2ccccc2c1 has a logP [19] of 3.24.
CCCCCNC(=O)CCC(NS(=O)(=O)c1ccccc1)C(=O)O (stereo not given) showed a logP [10] of -0.16.
For CCCC(=O)OCCc1ccc(O)c(O)c1, the logD [5] was 1.77.
CCCC(C)C1(CC)C(=O)NC(=O)N(C)C1=O (stereo not given) gave a logD [20] of 2.45.
With O=C1CC(C(=O)O)Oc2ccc(Cl)cc21 (stereo not given) the logP [14] was 1.77.
For CCC1(CCC(C)C)C(=O)NC(=O)N(C)C1=O (stereo not given), the logD [20] was 2.45.
In the case of Cc1c(C)c(O)c(C)c(C)c1O, the logP [17] is reported as 1.8.
O=S(=O)(CBr)c1ccc(F)cc1 showed a logP [15] of 1.74.
For c1ccc2c(c1)cnn2C12CC3CC(CC(C3)C1)C2, the logP [12] was 4.33.
With CC1=CC(=O)C=C(C)C1=O the logP [17] was 0.95.
For Fc1cccc(C2CNCCO2)c1 (stereo not given), the logP [18] was 1.42.
Compound Cc1cc(CCO)ccc1O has a logD [5] of 0.5.
In the case of COC(=O)CS(=O)(=O)c1ccc([N+](=O)[O-])cc1, the logP [16] is reported as 0.92.
COC(=O)CS(=O)c1ccc(Cl)cc1[N+](=O)[O-] (stereo not given) gave a logP [16] of 1.69.
With O=[N+]([O-])c1ccc2c(c1)Cc1cc([N+](=O)[O-])ccc1-2 the logP [19] was 3.35.
Work on CCC1(CC)C(=O)NC(=O)N(C)C1=O yielded a logD [20] of 1.15.
Compound Cc1ccc(S(=O)(=O)NC(CCC(=O)NC2CCCCC2)C(=O)O)cc1 (stereo not given) has a logP [10] of 0.32.
Work on CCC(=O)OCCc1ccc(O)c(O)c1 yielded a logD [5] of 1.2.
For COc1ccc(OC(=O)C2OC(O)C(O)C(O)C2O)cc1 (stereo not given), the logP [1] was -0.01.
c1ccc2c(c1)ncn2C12CC3CC(CC(C3)C1)C2 showed a logP [12] of 3.64.
Cc1c(Cl)ccc(Cc2ccc(Cl)cc2Cl)c1Cl showed a logP of 6.85.
For Cc1cc(O)ccc1O, the logP [17] was 0.91.
Compound Oc1ccc(Br)cc1Br has a logP [7] of 3.48.
With c1ccc(C2CNCCO2)cc1 (stereo not given) the logP [18] was 1.11.
Work on FC(F)(F)c1cccc(C2CNCCO2)c1 (stereo not given) yielded a logP [18] of 2.18.
Work on CO[C@@]1(NC(=O)Cc2cccs2)C(=O)N2C(C(=O)O)=C(COC(N)=O)CS[C@@H]21 yielded a logP [6] of -0.02.
Compound Cn1nnnc1SCC1=C(C(=O)O)N2C(=O)[C@@H](NC(=O)CSCC#N)[C@H]2SC1 has a logD ([6]; pH 2.0) of -0.62.
O=C(CCNC1CCCCC1)c1ccccc1 showed a logD ([3]; pH 11.0) of 2.57.
Work on O=C(Oc1ccc(-c2ccccc2)cc1)C1OC(O)C(O)C(O)C1O (stereo not given) yielded a logP [1] of 1.79.
Compound CCNC(=O)CCC(NS(=O)(=O)c1ccccc1)C(=O)O (stereo not given) has a logP [10] of 0.38.
For CN(C)c1ccccc1, the logP [7] was 2.29.
In the case of Nc1ccc(-c2ccc(N)cc2)cc1, the logP [11] is reported as 1.53.
Work on O=C1c2cc([N+](=O)[O-])ccc2-c2ccc([N+](=O)[O-])cc21 yielded a logP [19] of 2.84.
With NS(=O)(=O)c1ccccc1Cl the logP [13] was 0.79.
C=CCC1(CC=C)C(=O)NC(=O)N(C)C1=O gave a logD [20] of 1.55.
CC(=O)Oc1ccc(F)cc1 gave a logP [15] of 1.41.
In the case of O=[N+]([O-])c1c(O)nc(-c2ncncn2)nc1O, the logP [4] is reported as 2.02.
For O=C(CCN1CCCCC1)c1ccccc1, the logD ([3]; pH 10.0) was 2.4.
For O=[N+]([O-])c1cc(F)ccc1O, the logP [15] was 1.88.
Work on CNC(=O)[C@H](Cc1ccc(O)cc1)NC(C)=O yielded a logD [8] of -0.32.
In the case of O=[N+]([O-])c1cccc2cccnc12, the logP [19] is reported as 1.44.
In the case of CN(C)CCC(=O)c1ccccc1, the logD ([3]; pH 10.0) is reported as 1.77.
CNC(=O)[C@@H](NC(C)=O)C(C)C gave a logD [8] of -0.35.
Compound Cc1c(Cl)ccc(Cc2c(Cl)cccc2Cl)c1Cl has a logP of 6.58.
Cc1cc(Cl)c(Cl)cc1Cc1c(Cl)cccc1Cl showed a logP of 6.03.
Compound COC(=O)CS(=O)c1ccc([N+](=O)[O-])cc1 (stereo not given) has a logP [16] of 0.98.
With O=C(O)C1CCc2cc(Cl)ccc2O1 (stereo not given) the logP [14] was 2.4.
Compound O=C(O)C1COc2ccccc2O1 (stereo not given) has a logP [14] of 1.4.
In the case of COC(=O)c1ccccc1CS(N)(=O)=O, the logP [13] is reported as 0.37.
Work on CC[C@H](C)[C@H](NC(C)=O)C(=O)NC yielded a logD [8] of 0.14.
Oc1cccc(O)c1 showed a logD [8] of 0.83.
Compound CC(C(=O)O)c1ccc(N2CC=CC2)c(Cl)c1 (stereo not given) has a logP [11] of 3.58.
With CCCC1(CC)C(=O)NC(=O)N(C)C1=O (stereo not given) the logD [20] was 1.65.
OCCOc1cccc2ccccc12 showed a logP [2] of 2.5.
Work on CN(c1ccccc1)c1nc(Cl)nc(Cl)n1 yielded a logP [4] of 3.07.
Compound COc1cc(OC)nc(NC(=O)NS(=O)(=O)c2ccccc2Cl)n1 has a logD [13] of 1.95.
For COC(=O)c1ccccc1S(=O)(=O)NC(=O)Nc1nc(C)cc(C)n1, the logP [2] was 1.3.
For Clc1ncc(-c2ncncn2)c(Cl)n1, the logP [4] was 1.32.
With COC(=O)c1ccccc1S(N)(=O)=O the logP [13] was 0.01.
Work on c1ccc(CN2CCOCC2)cc1 yielded a logP [18] of 1.58.
For Cc1cc(Cl)ccc1O, the logP [7] was 2.78.
Work on CC(Oc1ccc(Cl)cc1)C(=O)O (stereo not given) yielded a logP [14] of 2.31.
CCCCCCCOC(=O)c1ccc(N)cc1 gave a logP [9] of 4.5.
For CCCCCCOC(=O)c1ccc(N)cc1, the logP [9] was 3.95.
For CC(=O)OCCc1ccc(O)c(O)c1, the logD [5] was 0.95.
Work on O=[N+]([O-])c1cccc2c([N+](=O)[O-])cccc12 yielded a logP [19] of 2.58.
Cc1cc(Cc2ccc(Cl)cc2Cl)c(Cl)cc1Cl gave a logP of 6.77.
